Experimental data published in US9650339B2, “Inhibitors of histone demethylases” (Gilead Sciences, Inc., priority 2013, dated 2017).

How the values were obtained:
KDM5B (PLU-1) = target: T1, KDM5B (PLU-1) (Homo sapiens, UniProt Q9UGL1); assay: Histone lysine demethylase AlphaLISA assay, KDM5B; assay type: biochemical; conditions: read-out: KDM5B HDME Inhibition IC50
T1 sequence (Q9UGL1 1-809): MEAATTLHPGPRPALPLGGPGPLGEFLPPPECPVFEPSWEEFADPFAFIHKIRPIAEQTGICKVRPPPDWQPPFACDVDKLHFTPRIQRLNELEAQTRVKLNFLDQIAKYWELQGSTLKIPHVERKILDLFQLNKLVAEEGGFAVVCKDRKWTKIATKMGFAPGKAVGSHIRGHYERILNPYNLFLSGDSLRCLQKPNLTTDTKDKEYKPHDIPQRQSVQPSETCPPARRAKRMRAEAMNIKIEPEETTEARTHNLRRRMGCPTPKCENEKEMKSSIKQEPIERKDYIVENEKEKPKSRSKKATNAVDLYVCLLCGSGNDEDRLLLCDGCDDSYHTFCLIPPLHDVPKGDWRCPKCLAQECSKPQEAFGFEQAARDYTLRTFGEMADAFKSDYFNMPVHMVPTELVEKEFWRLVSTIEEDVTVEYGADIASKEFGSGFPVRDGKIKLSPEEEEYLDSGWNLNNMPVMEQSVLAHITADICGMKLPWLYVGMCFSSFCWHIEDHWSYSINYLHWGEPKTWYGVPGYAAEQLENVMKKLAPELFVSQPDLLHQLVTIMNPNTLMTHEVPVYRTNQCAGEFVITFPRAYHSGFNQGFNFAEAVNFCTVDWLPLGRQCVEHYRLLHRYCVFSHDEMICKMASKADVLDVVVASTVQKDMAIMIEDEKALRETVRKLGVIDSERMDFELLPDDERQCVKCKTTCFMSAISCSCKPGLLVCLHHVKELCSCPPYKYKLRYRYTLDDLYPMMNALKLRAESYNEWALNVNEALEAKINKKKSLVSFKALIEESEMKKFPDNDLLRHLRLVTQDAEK
Procedure: (§1) Assays are performed analogously to the protocol described by PerkinElmer (Roy et al. PerkinElmer Technical Note: AlphaLISA #12, April 2011)
(§2) Enzymes are dissolved in enzyme buffer and incubated for 10 min before being added to 3% DMSO solutions of compounds in enzyme buffer. Incubated for another 10 minutes, before substrate solution is added and the reaction mixture is incubated at room temperature. 10 μL acceptor beads, suspended in Epigenetic Buffer (Perkin Elmer AL008) from stock, are added and the suspension is incubated in the dark at room temperature, before a suspension of streptavidin donor beads (Perkin Elmer 6760002) in Epigenetic Buffer is added. After incubation at room temperature in the dark the plates are read. […]
H3K4M3B: H-ART(Kme3)QTARKSTGGKAPRKQLA-NH-Biotin (Caslo, Denmark) […]
(§3) Substrate Solution: Substrate, 25 μM L-Asc, and 10 μM α-KG in Buffer A.

H3K4me3 mark = assay: Histone lysine demethylase immunofluorescence assay, non-transfected U2OS cells; assay type: cell-based; conditions: Homo sapiens, staining of the H3K4me3 mark, 20 hours incubation with compound
Procedure: U2OS cells were harvested and seeded into multi well plates into media containing compound. The media used was DMEM containing 5% FBS and pen/strep. 20 hours after incubation of cells with compounds, the cells were washed once in PBS, harvested by fixation with formaldehyde 4% aqueous solution, and washed in PBS. Subsequently, the cells were permeabilized in PBS with 0.2% Triton X-100. Blocking was performed in PBS with 0.2% Triton X-100 and 5% FBS. The cells were incubated with αH3K4me3 primary antibody (Cell Signaling, #9751S) in blocking solution over night at 4° C. After incubation with primary antibody, the cells were washed with PBS, incubated with secondary antibody (Alexa fluor 594 goat anti rabbit IgG, Invitrogen, A11012) and Hoechst, (Sigma, 33342) in blocking solution, and washed again with PBS. Finally, PBS was added and high throughput imaging and analysis were performed by an IN Cell Analyzer 1000 (GE Healthcare). The IC50 values were based on an average measure of the staining of the H3K4me3 mark in cells.

KDM4C (JMJD2C) = target: T2, KDM4C (JMJD2C) (Homo sapiens, UniProt Q9H3R0); assay: Histone lysine demethylase AlphaLISA assay, KDM4C; assay type: biochemical; conditions: read-out: KDM4C HDME Inhibition IC50
T2 sequence (Q9H3R0 1-349): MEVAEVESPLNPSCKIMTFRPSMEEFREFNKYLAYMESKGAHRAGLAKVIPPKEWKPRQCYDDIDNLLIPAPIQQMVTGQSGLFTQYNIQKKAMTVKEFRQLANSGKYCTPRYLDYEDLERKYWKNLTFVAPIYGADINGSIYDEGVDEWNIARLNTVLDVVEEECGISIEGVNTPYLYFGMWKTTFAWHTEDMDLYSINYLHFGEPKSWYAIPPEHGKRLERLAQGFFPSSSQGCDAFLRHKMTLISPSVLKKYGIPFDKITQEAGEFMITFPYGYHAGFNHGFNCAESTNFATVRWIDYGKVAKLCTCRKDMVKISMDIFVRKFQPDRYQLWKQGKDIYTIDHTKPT
Procedure: as §1
Enzymes are dissolved in enzyme buffer and incubated for 10 min before being added to 3% DMSO solutions of compounds in enzyme buffer. Incubated for another 10 minutes, before substrate solution is added and the reaction mixture is incubated at room temperature. 10 μL acceptor beads, suspended in Epigenetic Buffer (Perkin Elmer AL008) from stock, are added and the suspension is incubated in the dark at room temperature, before a suspension of streptavidin donor beads (Perkin Elmer 6760002) in Epigenetic Buffer is added. After incubation at room temperature in the dark the plates are read.
BK9M3: Biotin-ARTKQTAR(KMe3)STGGKAPRKQ-NH2 (Caslo, Denmark) […]
as §3

MCF7 cells = assay: Cell proliferation assay MCF7; assay type: cell-based; conditions: MCF7 human breast cancer cells; 120 hours; ATPlite 1 Step
Procedure: MCF7 cells were seeded in multi well plates at a density optimized to give approximately 90% confluent cells at the time of harvest. Cells were incubated for 24 hours before addition of compound. Compounds were diluted in complete medium and added to the plates in duplicates. The final concentration of DMSO was maximum 0.5%. Complete medium used was DMEM with GlutaMAX containing 10% FBS and pen/strep.
120 hours after addition of compounds, the plates were harvested and analyzed by ATPlite 1 Step (Perkin Elmer, cat no 6016739) according to the manufactures recommendation.

KDM6A (UTX) = KDM6A (UTX) (Homo sapiens, UniProt O15550); assay: Histone lysine demethylase AlphaLISA assay, KDM6A; assay type: biochemical; conditions: read-out: KDM6A HDME Inhibition IC50
Chain of KDM6A (UTX) (O15550 919-1401): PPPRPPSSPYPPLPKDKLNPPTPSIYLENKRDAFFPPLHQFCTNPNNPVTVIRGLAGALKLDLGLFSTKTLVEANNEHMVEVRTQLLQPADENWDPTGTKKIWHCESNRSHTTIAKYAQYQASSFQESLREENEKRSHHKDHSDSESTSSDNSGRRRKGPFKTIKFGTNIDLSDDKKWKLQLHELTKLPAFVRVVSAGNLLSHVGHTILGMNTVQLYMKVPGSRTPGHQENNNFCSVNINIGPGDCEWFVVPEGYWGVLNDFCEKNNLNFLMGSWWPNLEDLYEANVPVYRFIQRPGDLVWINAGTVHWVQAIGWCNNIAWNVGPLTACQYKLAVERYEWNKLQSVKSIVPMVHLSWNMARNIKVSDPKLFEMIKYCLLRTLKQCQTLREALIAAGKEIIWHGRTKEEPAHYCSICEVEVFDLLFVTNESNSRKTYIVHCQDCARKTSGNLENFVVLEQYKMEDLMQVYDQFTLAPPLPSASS
Procedure: as §1, §2
BK27M3: Biotin-ATKAAR(Kme3)SAPATGGVKKPHRY-NH2? (Caslo, Denmark) […]
as §3

KDM2B (FBXL10) = target: T3, KDM2B (FBXL10) (Homo sapiens, UniProt Q8NHM5); assay: Histone lysine demethylase AlphaLISA assay, KDM2B; assay type: biochemical; conditions: read-out: KDM2B HDME Inhibition IC50
T3 sequence (Q8NHM5 1-650): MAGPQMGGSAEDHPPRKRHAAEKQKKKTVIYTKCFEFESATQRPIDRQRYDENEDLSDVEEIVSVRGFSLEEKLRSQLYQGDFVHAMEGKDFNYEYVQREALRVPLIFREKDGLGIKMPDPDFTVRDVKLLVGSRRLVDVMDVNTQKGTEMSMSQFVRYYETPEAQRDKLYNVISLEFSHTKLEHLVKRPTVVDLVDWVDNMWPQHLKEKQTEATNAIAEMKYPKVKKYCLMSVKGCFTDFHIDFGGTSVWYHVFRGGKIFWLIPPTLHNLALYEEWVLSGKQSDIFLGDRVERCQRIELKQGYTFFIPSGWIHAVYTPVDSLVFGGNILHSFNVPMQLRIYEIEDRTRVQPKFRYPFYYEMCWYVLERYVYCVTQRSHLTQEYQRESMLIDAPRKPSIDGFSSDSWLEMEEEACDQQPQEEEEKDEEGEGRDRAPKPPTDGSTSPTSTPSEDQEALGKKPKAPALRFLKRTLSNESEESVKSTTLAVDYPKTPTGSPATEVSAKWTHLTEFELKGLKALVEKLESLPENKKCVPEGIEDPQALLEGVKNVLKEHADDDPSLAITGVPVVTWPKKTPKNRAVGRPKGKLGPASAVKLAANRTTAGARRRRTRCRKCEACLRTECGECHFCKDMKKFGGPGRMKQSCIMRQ
Procedure: as §1, §2
BH3K36M2: RKAAPATGGVK(Me2)KPHRYRPGTVK-(BIOTIN)? (Anaspec)
as §3

| IC50 (KDM5B (PLU-1)) [nM] | IC50 (H3K4me3 mark) [nM] | IC50 (KDM4C (JMJD2C)) [nM] | EC50 (MCF7 cells) [nM] | IC50 (KDM6A (UTX)) [nM] | IC50 (KDM2B (FBXL10)) [nM] | SMILES |
| --- | --- | --- | --- | --- | --- | --- |
| < 250 | < 250 | > 2500 | < 250 | – | – | CCN(CC1CCCN1C)C(=O)CNCc1cc(C=O)ccn1 (centres unmarked) [Compound 119, N-ethyl-2-{[(4-formylpyridin-2-yl)methyl]amino}-N-[(1-methylpyrrolidin-2-yl)methyl]acetamide] |
| 250 to 2500 | < 250 | > 2500 | < 250 | > 2500 | > 2500 | CCN(CCN1CCC1)C(=O)CNCc1cc(CNC(=O)C(F)(F)F)ccn1 [Compound 30, N-[(2-{[({[2-(azetidin-1-yl)ethyl](ethyl)-carbamoyl}-methyl)amino]methyl}-pyridin-4-yl)methyl]-2,2,2-trifluoroacetamide] |
| < 250 | > 2500 | > 2500 | > 2500 | > 2500 | > 2500 | CCN(CCN(C)C)C(=O)CNCc1cc(CNC(=O)C(F)(F)CC)ccn1 [Compound 32, N-[(2-{[({[2-(dimethylamino)-ethyl](ethyl)-carbamoyl}methyl)-amino]methyl}pyridin-4-yl)methyl]-2,2-difluorobutanamide] |
| 250 to 2500 | 250 to 2500 | > 2500 | 250 to 2500 | > 2500 | – | CCN(CC)CCCCNCc1cc(CNC(=O)C(=O)OC(C)(C)C)ccn1 [Compound 28, tert-butyl ({[2-({[4-(diethylamino)-butyl]amino}methyl)pyridin-4-yl]methyl}carbamoyl)-formate] |
| 250 to 2500 | 250 to 2500 | > 2500 | 250 to 2500 | > 2500 | – | CCN(CC)CCCCNCc1cc(C=NNc2ccc(C#N)cc2)ccn1 [Compound 70, 4-[2-{[2-({[4-(diethylamino)-butyl]amino}methyl)pyridin-4-yl]methylidene}-hydrazin-1-yl]benzonitrile] |
| < 250 | < 250 | 250 to 2500 | < 250 | – | > 2500 | CCN(CC(C)N(C)C)C(=O)CNCc1cc(/C=N/CCO)ccn1 (centres unmarked) [Compound 83, N-[2-(dimethylamino)-propyl]-N-ethyl-2-[({4-[[(2-hydroxyethyl)imino]-methyl]pyridin-2-yl}methyl)amino]-acetamide] |
| 250 to 2500 | < 250 | > 2500 | < 250 | – | > 2500 | CCN(CC)CCCCNCc1cc(/C=N/CC2(CO)CC2)ccn1 [Compound 77, (1-{[{[2-({[4-(diethylamino)-butyl]amino}-methyl)pyridin-4-yl]-methylidene}amino]-methyl}cyclopropyl)-methanol] |
| < 250 | < 250 | < 250 | 250 to 2500 | > 2500 | > 2500 | CCN(C[C@@H]1CCC[C@@H]1N(C)C)C(=O)CNCc1cc(/C=N/CCO)ccn1 [Compound 85, N-{[(1S,2S)-2-(dimethylamino)-cyclopentyl]methyl}-N-ethyl-2-[({4-[[(2-hydroxyethyl)imino]-methyl]pyridin-2-yl}methyl)amino] acetamide-] |
| < 250 | < 250 | > 2500 | < 250 | – | – | CCN(CC)CCCCNCc1cc(C=NCC(C)O)ccn1 (centres unmarked) [Compound 74, 1-[{[2-({[4-(diethylamino)-butyl]amino}-methyl)pyridin-4-yl]methylidene}-amino]propan-2-ol] |
| < 250 | < 250 | 250 to 2500 | < 250 | – | > 2500 | CCN(CC1CCCN1C)C(=O)CNCc1cc(/C=N/CCO)ccn1 (centres unmarked) [Compound 79, N-ethyl-2-[({4-[[(2-hydroxyethyl)imino]-methyl]pyridin-2-yl}methyl)amino]-N-[(1-methylpyrrolidin-2-yl)-methyl]acetamide] |
| > 2500 | < 250 | > 2500 | < 250 | > 2500 | > 2500 | CCN(CCCN(C)C)C(=O)CNCc1cc(/C=N/CCO)ccn1 [Compound 82, N-[3-(dimethylamino)propyl]-N-ethyl-2-[({4-[[(2-hydroxyethyl)imino]-methyl]pyridin-2-yl}methyl)amino]-acetamide] |
| < 250 | < 250 | < 250 | < 250 | > 2500 | – | CCN(CC)CCN(CC)C(=O)CNCc1cc(C=O)ccn1 [Compound 116, N-[2-(diethylamino)-ethyl]-N-ethyl-2-{[(4-formylpyridin-2-yl)methyl]amino}-acetamide] |
